In US8575146B2, “Pharmaceutical uses of staurosporine derivatives” (Novartis AG, priority 2003, dated 2013):

What was measured:
[1] = target: T1, constitutively activated mutant canine KIT in BR and C2 cells (Canis lupus familiaris, UniProt O97799, L579P); test: KIT autophosphorylation in BR and C2 canine mastocytoma cell lysates (anti-P-Tyr Western immunoblot); format: cell-based
T1 construct: Lysates prepared from BR or C2 cells are probed with an anti-P-Tyr antibody; endogenous in cells; host or cells: BR canine mastocytoma cell line
Excerpt: (§1) The C2 cell line has an internal tandem duplication (ITD) of the KIT juxtamembrane region.

[2] = system: BR and C2 canine mastocytoma cells; test: XTT-based proliferation assay of canine mast cell tumor cell lines; conditions: 0.1-10 μM; 48-72 hours; BR or C2 cells
Excerpt: as §1

[3] = system: systemic mastocytosis with D816V KIT mutation; test: Case of a patient with systemic mastocytosis / mast cell leukemia treated with PKC412; format: in vivo, human
Excerpt: They were supported with red blood cell and platelet transfusions, antihistamine blockade, and cromolyn sodium.

T1 sequence (O97799 28-979 L579P): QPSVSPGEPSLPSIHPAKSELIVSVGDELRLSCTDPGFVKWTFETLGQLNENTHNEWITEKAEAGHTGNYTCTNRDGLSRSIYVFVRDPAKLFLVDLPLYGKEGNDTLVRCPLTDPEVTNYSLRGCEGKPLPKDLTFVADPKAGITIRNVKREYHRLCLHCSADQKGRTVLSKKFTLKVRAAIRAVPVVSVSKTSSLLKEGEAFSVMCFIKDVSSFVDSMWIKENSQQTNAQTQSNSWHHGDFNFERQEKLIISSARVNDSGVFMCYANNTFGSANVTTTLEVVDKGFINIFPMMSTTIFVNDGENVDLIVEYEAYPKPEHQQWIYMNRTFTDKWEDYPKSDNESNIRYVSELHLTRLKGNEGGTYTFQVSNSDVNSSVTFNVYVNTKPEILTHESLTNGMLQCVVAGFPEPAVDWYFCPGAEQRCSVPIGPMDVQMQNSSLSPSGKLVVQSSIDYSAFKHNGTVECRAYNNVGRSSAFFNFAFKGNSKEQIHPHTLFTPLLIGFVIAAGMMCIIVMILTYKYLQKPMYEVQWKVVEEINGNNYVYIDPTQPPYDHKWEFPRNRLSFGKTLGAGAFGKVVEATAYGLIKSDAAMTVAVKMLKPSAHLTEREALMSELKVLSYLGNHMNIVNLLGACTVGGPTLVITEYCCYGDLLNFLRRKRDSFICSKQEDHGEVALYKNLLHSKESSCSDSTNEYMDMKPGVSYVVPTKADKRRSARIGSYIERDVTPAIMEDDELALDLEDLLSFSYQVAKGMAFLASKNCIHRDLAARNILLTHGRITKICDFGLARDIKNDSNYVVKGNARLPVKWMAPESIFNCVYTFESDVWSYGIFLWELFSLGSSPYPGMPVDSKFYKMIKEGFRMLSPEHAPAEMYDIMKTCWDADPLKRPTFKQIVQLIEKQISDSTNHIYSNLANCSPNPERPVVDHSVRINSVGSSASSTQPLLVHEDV

Structure (SMILES): CO[C@@H]1[C@H](N(C)C(=O)c2ccccc2)C[C@H]2O[C@]1(C)n1c3ccccc3c3c4c(c5c6ccccc6n2c5c31)C(=O)NC4 [PKC412, N-[(9S, 10R,11R,13R)-2,3,10,11,12,13-hexahydro-10-methoxy-9-methyl-1-oxo-9,13-epoxy-1H,9H-diindolo[1,2,3-gh:3′,2′,1′-lm]pyrrolo[3,4j][1,7]benzodiazonin-11-yl]-N-methylbenzamide]
- Inhibition of KIT autophosphorylation ([1]; 0.1 μM dose, BR or C2 cells, 90 minutes): Near complete inhibition
- autophosphorylation of c-kit ([1]; 0.001-0.01 μM doses, BR or C2 cells, 90 minutes): Limited autophosphorylation
- Inhibition of KIT autophosphorylation ([1]; 10 and 1.0 μM doses, BR or C2 cells, 90 minutes): complete inhibition
- expression of c-kit protein (membrane reprobed with anti-c-kit antibody) ([1]; PKC412 treated BR or C2 cells): no change
- proliferation decreased compared to cells treated with media only [2]: 90-95%
- tolerability / adverse events ([3]; 100 mg twice daily orally, later 75 mg po tid): well tolerated without any significant adverse events
- day on which patient expired ([3]; PKC412 stopped on day #102): 111 days
- serum histamine level ([3]; after 1 month (about day 32)): 1031 ng/dL
- Transient platelet-transfusion independence, duration ([3]; cycle 2): 2-3 weeks
- platelets ([3]; cycle 2, during transient platelet-transfusion independence): 20,000-25,000 /mm3
- Serum histamine ([3]; cycle 3): 2525 ng/dL
- bilirubin (total) ([3]; cycle 3, when PKC412 stopped on day #102): 14 mg/dL
- circulating mast cells ([3]; day 32 of treatment): < 5%
- white blood cell count ([3]; day 32 of treatment): normal
- Bone marrow clusters of mast cells by IPOX ([3]; end of cycle 1): no changes
- Bone marrow blasts ([3]; end of cycle 1 / after 1 month, 5-10% at presentation): < 5%
- Karnofsky performance status ([3]; end of cycle 1 / after 1 month, from 20% before therapy): 70%
- Response (criteria of Valent et al) ([3]; end of cycle 1, 100 mg twice daily orally, 28-day cycles): Partial Response
- direct bilirubin ([3]; end of cycle 1, from 2.8): 1.1 mg/dL
- total bilirubin ([3]; end of cycle 1, from 4.8): 2.1 mg/dL
- Peripheral blood mast cell numbers ([3]; end of cycle 1, from 40-50%): < 10%
- LDH ([3]; end of cycle 1, from 769): 239 IU/L
- Serum histamine ([3]; end of cycle 1, from 7000, normal <100): 1000 ng/dL
- Bone marrow blasts ([3]; end of cycle 2): 10-15%
- Bone marrow mast cell clusters ([3]; end of cycle 2): no significant change
- Peripheral blood mast cell numbers ([3]; end of cycle 2): < 10%
- Response ([3]; end of cycle 2): Maintenance of Partial Response
- Serum histamine ([3]; end of cycle 2): 800 to 1200 ng/dL
- serum tryptase ([3]; end of cycle 2): > 200 µg/L
- direct bilirubin ([3]; end of cycle 2, from 1.1): 0.7 mg/dL
- total bilirubin ([3]; end of cycle 2, from 2.1): 1.3 mg/dL
- Response ([3]; end of cycle 3, dose increased to 75 mg po tid on day #91): Disease Progression
